Measured values taken from patent US20220168427A1 (Ranok Therapeutics (Hangzhou) Co. Ltd., priority 2019, published 2022).
Counter-ions that a name gives are not always drawn.

Legend:
HSP90α = HSP90α (Homo sapiens, UniProt P07900); assay: HSP90α Binding Fluorescent Polarization (FP) Assay; conditions: competition with FITC-geldanamycin; read-out: HSP90 Binding Potency
Experimental: HSP90α Binding Fluorescent Polarization (FP) Assay
A master mix was prepared with assay buffer, BSA and FITC-geldanamycin. In a 96-well plate, a serial 3-fold dilution of each compound was prepared ranging from 40 μM down until 2.0 nM. Also in a 96-well plate, recombinant HSP90α protein was diluted to 28 μg/ml. Then, in a 384-well plate, 10 μl of master mix and 5 μl of compound dilution were added per well to duplicate wells and mixed by brief shaking. Then 5 μl of diluted HSP90α protein was added per well, mixed by brief shaking, incubated at 25° C. for 30, 60 and 120 min and fluorescence was measured on an EnVision Plate Reader. Background-subtracted mP values were calculated from EnVision raw data and a four-parameter “log[inhibitor] vs. response” curve was fitted using GraphPad Prism 7.0.

BRD4 (BD1+BD2) = target: T1, BRD4 (BD1+BD2) (Homo sapiens, UniProt O60885); conditions: read-out: BRD4 Binding Potency
T1 construct: 1.8 μg/ml recombinant BRD4 (BD1+BD2 domains) protein
Experimental: A master mix was prepared with assay buffer, 1.8 μg/ml recombinant BRD4 (BD1+BD2 domains) protein, and 200-fold dilutions of Tb-labeled donor and dye-labeled acceptor. 40-fold dilutions of acetylated and non-acetylated ligands were prepared in 1×BRD TR-FRET assay buffer. Also, a serial 3-fold dilution of each compound was prepared ranging from 40 μM down until 2.0 nM. In a 384-well plate, 5 μl diluted ligand and 5 μl of compound dilution were added per well to duplicate wells and mixed by brief shaking. Then 10 μl of master mix was added per well, mixed by brief shaking, incubated at 25° C. for 2 hr and fluorescence was measured on an EnVision Plate Reader. The 665 nm/615 nm ratio was calculated from EnVision raw data. Data were normalized using whole-plate averages of “positive” and “negative” readings. A four-parameter “log[inhibitor] vs. response” curve was fitted using GraphPad Prism 7.0.

MV4-11 cells = assay: MV4-11 Cell Cytotoxicity Assay; format: cell-based, human; conditions: human, MV4-11 cells, CCK-8
Source text: % Inhibition=100−(D−B)/(S−B)*100%.
S: The absorbance of the maximum (cells with DMSO)
B: The absorbance of the minimum (medium with DMSO)

Compound | IC50 (HSP90α) [nM] | IC50 (BRD4 (BD1+BD2)) [nM] | IC50 at 72 h (MV4-11 cells) [nM]
CCn1c(=O)/c(=C2\Sc3ccccc3N2C)s/c1=C\c1cccc[n+]1CCNC(=O)C[C@@H]1N=C(c2ccc(Cl)cc2)c2c(sc(C)c2C)-n2c(C)nnc21 [Compound 8, 1-(2-(2-((6S)-4-(4-chlorophenyl)-2,3,9-trimethyl-6H-thieno[3,2-f][1,2,4]triazolo[4,3-a][1,4]diazepin-6-yl)acetamido)ethyl)-2-((Z)-((E)-3-ethyl-5-(3-methylbenzo[d]thiazol-2(3H)-ylidene)-4-oxothiazolidin-2-ylidene)methyl)pyridin-1-ium] | > 1000 | 100 to 1000 | > 1000
Cc1cc(-c2nnc(O)n2-c2ccc(CN3CCN(CC4CCN(C(=O)C[C@@H]5N=C(c6ccc(Cl)cc6)c6c(sc(C)c6C)-n6c(C)nnc65)CC4)CC3)cc2)c(O)cc1O [Compound 9, 2-((6S)-4-(4-chlorophenyl)-2,3,9-trimethyl-6H-thieno[3,2-f][1,2,4]triazolo[4,3-a][1,4]diazepin-6-yl)-1-(4-((4-(4-(3-(2,4-dihydroxy-5-methylphenyl)-5-hydroxy-4H-1,2,4-triazol-4-yl)benzyl)piperazin-1-yl)methyl)piperidin-1-yl)ethanone, trifluoroacetic acid] | 100 to 1000 | < 100 | < 100
CCc1cc(-c2nnc(O)n2-c2ccc(CN3CCN(CC4CCN(C(=O)C[C@@H]5N=C(c6ccc(Cl)cc6)c6c(sc(C)c6C)-n6c(C)nnc65)CC4)CC3)cc2)c(O)cc1O [Compound 10, (S)-2-(4-(4-chlorophenyl)-2,3,9-trimethyl-6H-thieno[3,2-f][1,2,4]triazolo[4,3-a][1,4]diazepin-6-yl)-1-(4-((4-(4-(3-(5-ethyl-2,4-dihydroxyphenyl)-5-hydroxy-4H-1,2,4-triazol-4-yl)benzyl)piperazin-1-yl)methyl)piperidin-1-yl)ethan-1-one hydrochloride] | 100 to 1000 | 100 to 1000 | < 100
CCCc1cc(-c2nnc(O)n2-c2ccc(CN3CCN(CC4CCN(C(=O)C[C@@H]5N=C(c6ccc(Cl)cc6)c6c(sc(C)c6C)-n6c(C)nnc65)CC4)CC3)cc2)c(O)cc1O [Compound 11, (S)-2-(4-(4-chlorophenyl)-2,3,9-trimethyl-6H-thieno[3,2-f][1,2,4]triazolo[4,3-a][1,4]diazepin-6-yl)-1-(4-((4-(4-(3-(2,4-dihydroxy-5-propylphenyl)-5-hydroxy-4H-1,2,4-triazol-4-yl)benzyl)piperazin-1-yl)methyl)piperidin-1-yl)ethan-1-one, trifluoroacetic acid] | < 100 | 100 to 1000 | < 100
Cc1sc2c(c1C)C(c1ccc(Cl)cc1)=N[C@@H](CC(=O)N1CCC(CN3CCN(Cc4ccc(-n5c(S)nnc5-c5cc(C(C)C)c(O)cc5O)cc4)CC3)CC1)c1nnc(C)n1-2 [Compound 12, 2-((6S)-4-(4-chlorophenyl)-2,3,9-trimethyl-6H-thieno[3,2-f][1,2,4]triazolo[4,3-a][1,4]diazepin-6-yl)-1-(4-((4-(4-(3-(2,4-dihydroxy-5-isopropylphenyl)-5-mercapto-4H-1,2,4-triazol-4-yl)benzyl)piperazin-1-yl)methyl)piperidin-1-yl)ethanone, trifluoroacetic acid] | < 100 | > 1000 | < 100
Cc1sc2c(c1C)C(c1ccc(Cl)cc1)=N[C@@H](CC(=O)N1CCC(CN3CCN(Cc4ccc(-n5c(C(=O)NCC(F)(F)F)nnc5-c5cc(C(C)C)c(O)cc5O)cc4)CC3)CC1)c1nnc(C)n1-2 [Compound 13, 4-(4-((4-((1-(2-((6S)-4-(4-chlorophenyl)-2,3,9-trimethyl-6H-thieno[3,2-f][1,2,4]triazolo[4,3-a][1,4]diazepin-6-yl)acetyl)piperidin-4-yl)methyl)piperazin-1-yl)methyl)phenyl)-5-(2,4-dihydroxy-5-isopropylphenyl)-N-(2,2,2-trifluoroethyl)-4H-1,2,4-triazole-3-carboxamide] | 100 to 1000 | 100 to 1000 | < 100
